According to patent US20210318318A1, “Kinase Activity In Tumors” (Institute For Cancer Research d/b/a The Research Institute …, priority 2018, published 2021):

How the values were obtained:
Format in all cases: cell-based, human
OVCAR4 = assay: Short-term growth assay (CellTiter-Glo cell viability), kinase inhibitors
Description: (§1) Cell viability was determined by Cell Titer Glo analysis.
(§2) To explore the therapeutic potential of the HGSOC kinome signature, a detailed molecular analysis of protein levels/activity, growth and survival functions was carried out in a panel of recently validated HGSOC cell lines (Coscia et al., Nat. Commun., 2016, 7, 12645) that harbor commonly encountered HGSOC mutations and genetic rearrangements (see, FIG. 5A).
(§3) For short-term growth assays, 3000-5000 cells were plated per well in 96-well plates and allowed to adhere and equilibrate overnight. Drug was added the following morning and after 120 hours of drug treatment, cell viability was assessed using the CellTiter-Glo Luminescent cell viability assay according to manufacturer (Promega). Students t tests were performed for statistical analyses and p values ≤0.05 were considered significant. For colony formation assays, cells were plated in 24-well dishes (3000-5000 cells per well) and incubated overnight before continuous drug treatment for 14 days, with drug and media replaced twice weekly. At the end of treatment, cells were rinsed with PBS and fixed with chilled methanol for 10 minutes at −20° C. Methanol was removed by aspiration, and cells were stained with 0.5% crystal violet in 20% methanol for 20 minutes at room temperature, washed with distilled water, and scanned.

OVSAHO = assay: as above
Description: as §1, §2, §3

Kuramochi = assay: as above
Description: as §1, §2, §3

SNU-119 = assay: as above
Description: as §1, §2, §3

COV362 = assay: as above
Description: as §1
COV362 cells were treated with increasing concentrations of A-674563 and cell viability assessed by Cell Titer Glo according to manufacturer's instructions. Data represent the mean of six replicates.
as §2, §3

OVCAR4 cells = assay: Drug growth inhibition in cells depleted of dark kinases by siRNA (Cell Titer Glo); conditions: increasing doses of drug
Description: OVCAR4 cells were transfected with control nontargeting or dark kinase siRNAs and treated with escalating doses of appropriate drugs.
To explore if blocking dark kinases AAK1, STK38 or MRCKA activity in combination with current therapies improves drug efficacy, OVCAR4 cells depleted of AAK1, STK38 or MRCKA were treated with increasing doses of carboplatin, olaparib, JQ1, or a variety of kinase inhibitors in clinical trials for HGSOC.
siRNA transfections were performed using 25 nM siRNA duplex and the reverse transfection protocol. 3000-5000 cells per well were added to 96 well plates with media containing the siRNA and transfection reagent (Lipofectamine RNAiMax) according to the manufacturer's instructions. In experiments where inhibitors were used, the inhibitor was added at the time of transfection. Cells were allowed to grow for 72-120 hours post-transfection prior to CellTiter Glo (Promega) analysis. Two-to-three independent experiments were performed with each cell line and siRNA. Students t tests were performed for statistical analyses and p values ≤0.05 were considered significant. For western blot studies, the same procedure was performed with volumes and cell numbers proportionally scaled to a 60 mm or 10 cm dish, and cells were collected 24-72 hours post-transfection. siRNA product numbers and manufacturers are listed in Table 5.

HGSOC cells = assay: Cell viability of HGSOC cell line panel (Cell Titer Glo); conditions: increasing concentrations; Cell Titer Glo
Description: Cells were treated with increasing concentrations of PF-03758309 and cell viability assessed by Cell Titer Glo according to manufacturer's instructions. Data represent the mean of six replicates.
Cell viability was assessed by Cell Titer Glo according to manufacturing. Data represent the mean of six replicates.
as §3

NC(=O)Nc1sc(-c2ccc(F)cc2)cc1C(N)=O [TPCA-1]
Kinase inhibition profile of HGSOC cells (growth inhibition, Cell Titer Glo) (OVCAR4; drug 1.2 uM): 0.8768
Kinase inhibition profile of HGSOC cells (growth inhibition, Cell Titer Glo) (OVSAHO; drug 1.2 uM): 0.9827
Kinase inhibition profile of HGSOC cells (growth inhibition, Cell Titer Glo) (Kuramochi; drug 1.2 uM): 0.988
Kinase inhibition profile of HGSOC cells (growth inhibition, Cell Titer Glo) (SNU-119; drug 1.2 uM): 0.9375
Kinase inhibition profile of HGSOC cells (growth inhibition, Cell Titer Glo) (COV362; drug 1.2 uM): 1.094

CC(=O)Nc1cccc(-n2c(=O)n(C3CC3)c(=O)c3c(Nc4ccc(I)cc4F)n(C)c(=O)c(C)c32)c1 [Trametinib]
Kinase inhibition profile of HGSOC cells (growth inhibition, Cell Titer Glo) (OVCAR4; drug 0.0125 uM): 0.8436
Kinase inhibition profile of HGSOC cells (growth inhibition, Cell Titer Glo) (OVSAHO; drug 0.0125 uM): 0.7824
Kinase inhibition profile of HGSOC cells (growth inhibition, Cell Titer Glo) (Kuramochi; drug 0.0125 uM): 0.7708
Kinase inhibition profile of HGSOC cells (growth inhibition, Cell Titer Glo) (SNU-119; drug 0.0125 uM): 0
Kinase inhibition profile of HGSOC cells (growth inhibition, Cell Titer Glo) (COV362; drug 0.0125 uM): 0.5766

CCOc1ccn(-c2ccc(F)cc2)c(=O)c1C(=O)Nc1ccc(Oc2ccnc(N)c2Cl)c(F)c1 [BMS777607]
Kinase inhibition profile of HGSOC cells (growth inhibition, Cell Titer Glo) (OVCAR4; drug 1.2 uM): 1.062
Kinase inhibition profile of HGSOC cells (growth inhibition, Cell Titer Glo) (OVSAHO; drug 1.2 uM): 1.102
Kinase inhibition profile of HGSOC cells (growth inhibition, Cell Titer Glo) (Kuramochi; drug 1.2 uM): 1.007
Kinase inhibition profile of HGSOC cells (growth inhibition, Cell Titer Glo) (SNU-119; drug 1.2 uM): 1.028
Kinase inhibition profile of HGSOC cells (growth inhibition, Cell Titer Glo) (COV362; drug 1.2 uM): 0.9079

COc1cc(Nc2ncc3c(n2)-c2ccc(Cl)cc2C(c2c(F)cccc2OC)=NC3)ccc1C(=O)O [Alisertib]
Kinase inhibition profile of HGSOC cells (growth inhibition, Cell Titer Glo) (OVCAR4; drug 0.312 uM): 0.1016
Kinase inhibition profile of HGSOC cells (growth inhibition, Cell Titer Glo) (OVSAHO; drug 0.312 uM): 0.5387
Kinase inhibition profile of HGSOC cells (growth inhibition, Cell Titer Glo) (Kuramochi; drug 0.312 uM): 0.5199
Kinase inhibition profile of HGSOC cells (growth inhibition, Cell Titer Glo) (SNU-119; drug 0.312 uM): 1.057
Kinase inhibition profile of HGSOC cells (growth inhibition, Cell Titer Glo) (COV362; drug 0.312 uM): 1.075

C=CCn1c(=O)c2cnc(Nc3ccc(N4CCN(C)CC4)cc3)nc2n1-c1cccc(C(C)(C)O)n1 [MK-1775]
Kinase inhibition profile of HGSOC cells (growth inhibition, Cell Titer Glo) (OVCAR4; drug 0.312 uM): 0.6747
Kinase inhibition profile of HGSOC cells (growth inhibition, Cell Titer Glo) (OVSAHO; drug 0.312 uM): 0.5935
Kinase inhibition profile of HGSOC cells (growth inhibition, Cell Titer Glo) (Kuramochi; drug 0.312 uM): 1.111
Kinase inhibition profile of HGSOC cells (growth inhibition, Cell Titer Glo) (SNU-119; drug 0.312 uM): 0.4312
growth inhibition by drug with MRCKA knockdown relative to non-targeting control siRNA (OVCAR4 cells): enhanced growth inhibition
Kinase inhibition profile of HGSOC cells (growth inhibition, Cell Titer Glo) (COV362; drug 0.312 uM): 0.03494

CN(C)C/C=C/C(=O)Nc1ccc(C(=O)Nc2cccc(Nc3ncc(Cl)c(-c4c[nH]c5ccccc45)n3)c2)cc1 [THZ1]
Kinase inhibition profile of HGSOC cells (growth inhibition, Cell Titer Glo) (OVCAR4; drug 0.156 uM): 0
Kinase inhibition profile of HGSOC cells (growth inhibition, Cell Titer Glo) (OVSAHO; drug 0.156 uM): 0
Kinase inhibition profile of HGSOC cells (growth inhibition, Cell Titer Glo) (Kuramochi; drug 0.156 uM): 0.07069
Kinase inhibition profile of HGSOC cells (growth inhibition, Cell Titer Glo) (SNU-119; drug 0.156 uM): 0
growth inhibition by drug combined with knockdown of STK38 (OVCAR4 cells): improved growth inhibition
growth inhibition by drug with MRCKA knockdown relative to non-targeting control siRNA (OVCAR4 cells): enhanced growth inhibition
Kinase inhibition profile of HGSOC cells (growth inhibition, Cell Titer Glo) (COV362; drug 0.156 uM): 1.026

Cc1cnc(Nc2ccc(F)cc2Cl)nc1-c1c[nH]c(C(=O)N[C@H](CO)c2cccc(Cl)c2)c1 [Vx-11e]
Kinase inhibition profile of HGSOC cells (growth inhibition, Cell Titer Glo) (OVCAR4; drug 0.625 uM): 0.9623
Kinase inhibition profile of HGSOC cells (growth inhibition, Cell Titer Glo) (OVSAHO; drug 0.625 uM): 0.5488
Kinase inhibition profile of HGSOC cells (growth inhibition, Cell Titer Glo) (Kuramochi; drug 0.625 uM): 0.3596
Kinase inhibition profile of HGSOC cells (growth inhibition, Cell Titer Glo) (SNU-119; drug 0.625 uM): 0.3359
Kinase inhibition profile of HGSOC cells (growth inhibition, Cell Titer Glo) (COV362; drug 0.625 uM): 1.014

CNC(=O)c1ccccc1Nc1cc(Nc2ccc(N3CCOCC3)cc2OC)ncc1C(F)(F)F [PND1186]
Kinase inhibition profile of HGSOC cells (growth inhibition, Cell Titer Glo) (OVCAR4; drug 1.2 uM): 0.51
Kinase inhibition profile of HGSOC cells (growth inhibition, Cell Titer Glo) (OVSAHO; drug 1.2 uM): 0.69
Kinase inhibition profile of HGSOC cells (growth inhibition, Cell Titer Glo) (Kuramochi; drug 1.2 uM): 0.51
Kinase inhibition profile of HGSOC cells (growth inhibition, Cell Titer Glo) (SNU-119; drug 1.2 uM): 0
Kinase inhibition profile of HGSOC cells (growth inhibition, Cell Titer Glo) (COV362; drug 1.2 uM): 0.34
cell viability of HGSOC cells (HGSOC cells): reduced cell viability

Cc1sc2c(c1C)C(c1ccc(Cl)cc1)=N[C@@H](CC(=O)OC(C)(C)C)c1nnc(C)n1-2 [JQ1]
growth inhibition by drug combined with depletion of AAK1 (OVCAR4 cells): enhanced growth inhibition
growth inhibition by drug with MRCKA knockdown relative to non-targeting control siRNA (OVCAR4 cells): enhanced growth inhibition

CCc1cc(Nc2nccc(-c3c(-c4ccc(OC)c(C(=O)Nc5c(F)cccc5F)c4)nc4ccccn34)n2)c(OC)cc1N1CCC(N2CCN(S(C)(=O)=O)CC2)CC1 [GSK529A]
Kinase inhibition profile of HGSOC cells (growth inhibition, Cell Titer Glo) (OVCAR4; drug 5 uM): 0.5226
Kinase inhibition profile of HGSOC cells (growth inhibition, Cell Titer Glo) (OVSAHO; drug 5 uM): 0.6574
Kinase inhibition profile of HGSOC cells (growth inhibition, Cell Titer Glo) (Kuramochi; drug 5 uM): 0.9732
Kinase inhibition profile of HGSOC cells (growth inhibition, Cell Titer Glo) (SNU-119; drug 5 uM): 0.6579
Kinase inhibition profile of HGSOC cells (growth inhibition, Cell Titer Glo) (COV362; drug 5 uM): 0.9731
